Results on 19 compounds are retold here after the supplement of paper PMC8967900.

SMILES strings stand for the structures.
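Further: ALL cell lines in 384-well plates, five doses spanning 10,000-fold, each plate scaled between vehicle and 100 µmol/L benzalkonium chloride controls, sDSS an adapted area-under-curve metric.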

For the first assay, the system named is KASUMI-9. The assay can be described thus: selective drug sensitivity score (sDSS, relative to normal bone marrow) (sDSS (score)); higher = more potent and effective on the cell line relative to normal bone marrow cells. The following applies: 72 h.
Regarding `CNC(=O)c1ccc(C)c(-n2c(C)cc(OCc3ccc(F)cc3F)c(Br)c2=O)c1` (top concentration 1000 nM), the “selective drug sensitivity score” value was 2.3.

In the case of `CONC(=O)c1ccccc1Nc1cc(Nc2cc(C)nn2C(C)C)ncc1Cl` (top concentration 1000 nM), the “selective drug sensitivity score” value was -0.94.

Turning to `CCOc1ccn(-c2ccc(F)cc2)c(=O)c1C(=O)Nc1ccc(Oc2ccnc(N)c2Cl)c(F)c1` (top concentration 2500 nM), the “selective drug sensitivity score” value stood at 0.

Take `CC[C@@H]1[C@H](F)C(=O)N[C@@H]1COc1nccc2cc(C(N)=O)c(OC)cc12` (top concentration 10000 nM): the “selective drug sensitivity score” value came out at 0.08.

For `C[C@H]1C[C@@H](n2c(Nc3ccc(OC(F)(F)F)cc3)nc3cc(CCC(=O)O)ccc32)CC(C)(C)C1` (top concentration 10000 nM), the “selective drug sensitivity score” value turned out to be 0.66.

For the compound `O=C(NCc1ccncc1)C12CC3CC(C1)CC(c1ccc(Cl)cc1)(C3)C2` (top concentration 50000 nM), the “selective drug sensitivity score” value was 4.28.

Consider `O=C(O)c1ccc(CN2CCC(CN[C@@H]3C[C@H]3c3ccccc3)CC2)cc1` (top concentration 100000 nM), for which the “selective drug sensitivity score” value was -0.62.

Consider `COc1cc(N2CCN(C)CC2)ccc1Nc1nccc(-c2cn(C)c3cnccc23)n1` [AZ191] (top concentration 10000 nM), for which the “selective drug sensitivity score” value was 1.58.

`Cc1cc(Nc2nc(N[C@@H](C)c3ncc(F)cn3)ncc2Cl)[nH]n1` [AZD1480] (top concentration 1000 nM): the “selective drug sensitivity score” value is -0.68.

In the case of `COc1cc(CCc2cc(NC(=O)c3ccc(N4CC(C)NC(C)C4)cc3)n[nH]2)cc(OC)c1` (configuration not stated) [AZD4547] (top concentration 1000 nM), the “selective drug sensitivity score” value is -0.14.

Consider `CN(C)C(=O)c1ccc(S(=O)(=O)c2ccc(NC(=O)[C@@](C)(O)C(F)(F)F)c(Cl)c2)cc1` [AZD7545] (top concentration 10000 nM), for which the “selective drug sensitivity score” value is -0.2.

In the case of `COc1cc(C)c(/C=C/C(C)=C/C=C/C(C)=C/C(=O)O)c(C)c1C` [Acitretin] (top concentration 10000 nM), the “selective drug sensitivity score” value was 2.9.

Regarding `CCC1(c2ccc(N)cc2)CCC(=O)NC1=O` (configuration not stated) [Aminoglutethimide] (top concentration 10000 nM), the “selective drug sensitivity score” value was 0.6.

For `CNC(=O)c1ccc(N2C(=S)N(c3cnc(C#N)c(C(F)(F)F)c3)C(=O)C23CCC3)cc1F` [Apalutamide] (top concentration 10000 nM), the “selective drug sensitivity score” value was 0.

On to `N#CC1(c2ccc(NC(=O)c3cccnc3NCc3ccncc3)cc2)CCCC1` [Apatinib] (top concentration 10000 nM), for which the “selective drug sensitivity score” value stood at 0.

For `Cc1nc2cccc(N)c2c(=O)n1C1CCC(=O)NC1=O` (configuration not stated) [Avadomide (CC122)] (top concentration 10000 nM), the “selective drug sensitivity score” value was found to be 10.7.

Take `Nc1nc(Nc2ccc3c(c2)CC[C@@H](N2CCCC2)CC3)nn1-c1cc2c(nn1)-c1ccccc1CCC2` [BGB324] (top concentration 10000 nM): the “selective drug sensitivity score” value came out at 5.22.

For `CC1(C)C(C(=O)Nc2ccc(S(=O)(=O)c3ccc(NC(=O)C4C(C)(C)C4(C)C)cc3)cc2)C1(C)C` [BRD7116] (top concentration 10000 nM), the “selective drug sensitivity score” value worked out at 4.46.

With `CCS(=O)(=O)N1CC(CC#N)(n2cc(-c3ncnc4[nH]ccc34)cn2)C1` [Baricitinib] (top concentration 2500 nM), the “selective drug sensitivity score” value was -1.94.

The test system of another assay is KOPN-8. The description is as above. The following applies: 72 h.
As for `CNC(=O)c1ccc(C)c(-n2c(C)cc(OCc3ccc(F)cc3F)c(Br)c2=O)c1` (top concentration 1000 nM), the “selective drug sensitivity score” value came out at 0.7.

Consider `CONC(=O)c1ccccc1Nc1cc(Nc2cc(C)nn2C(C)C)ncc1Cl` (top concentration 1000 nM), for which the “selective drug sensitivity score” value amounted to 3.86.

On to `CCOc1ccn(-c2ccc(F)cc2)c(=O)c1C(=O)Nc1ccc(Oc2ccnc(N)c2Cl)c(F)c1` (top concentration 2500 nM), for which the “selective drug sensitivity score” value was 0.

Take `CC[C@@H]1[C@H](F)C(=O)N[C@@H]1COc1nccc2cc(C(N)=O)c(OC)cc12` (top concentration 10000 nM): the “selective drug sensitivity score” value came out at 1.78.

For the compound `C[C@H]1C[C@@H](n2c(Nc3ccc(OC(F)(F)F)cc3)nc3cc(CCC(=O)O)ccc32)CC(C)(C)C1` (top concentration 10000 nM), the “selective drug sensitivity score” value stood at 0.06.

`O=C(NCc1ccncc1)C12CC3CC(C1)CC(c1ccc(Cl)cc1)(C3)C2` (top concentration 50000 nM): the “selective drug sensitivity score” value worked out at 4.48.

`O=C(O)c1ccc(CN2CCC(CN[C@@H]3C[C@H]3c3ccccc3)CC2)cc1` (top concentration 100000 nM): the “selective drug sensitivity score” value is -0.62.

`COc1cc(N2CCN(C)CC2)ccc1Nc1nccc(-c2cn(C)c3cnccc23)n1` [AZ191] (top concentration 10000 nM): the “selective drug sensitivity score” value came out at 2.18.

On to `Cc1cc(Nc2nc(N[C@@H](C)c3ncc(F)cn3)ncc2Cl)[nH]n1` [AZD1480] (top concentration 1000 nM), for which the “selective drug sensitivity score” value is -4.28.

On to `COc1cc(CCc2cc(NC(=O)c3ccc(N4CC(C)NC(C)C4)cc3)n[nH]2)cc(OC)c1` (configuration not stated) [AZD4547] (top concentration 1000 nM), for which the “selective drug sensitivity score” value is -0.14.

Turning to `CN(C)C(=O)c1ccc(S(=O)(=O)c2ccc(NC(=O)[C@@](C)(O)C(F)(F)F)c(Cl)c2)cc1` [AZD7545] (top concentration 10000 nM), the “selective drug sensitivity score” value turned out to be 3.1.

With `COc1cc(C)c(/C=C/C(C)=C/C=C/C(C)=C/C(=O)O)c(C)c1C` [Acitretin] (top concentration 10000 nM), the “selective drug sensitivity score” value came to 1.8.

For the compound `CCC1(c2ccc(N)cc2)CCC(=O)NC1=O` (configuration not stated) [Aminoglutethimide] (top concentration 10000 nM), the “selective drug sensitivity score” value came to 0.

In the case of `CNC(=O)c1ccc(N2C(=S)N(c3cnc(C#N)c(C(F)(F)F)c3)C(=O)C23CCC3)cc1F` [Apalutamide] (top concentration 10000 nM), the “selective drug sensitivity score” value is 0.

For the compound `N#CC1(c2ccc(NC(=O)c3cccnc3NCc3ccncc3)cc2)CCCC1` [Apatinib] (top concentration 10000 nM), the “selective drug sensitivity score” value was found to be 0.1.

As to `Cc1nc2cccc(N)c2c(=O)n1C1CCC(=O)NC1=O` (configuration not stated) [Avadomide (CC122)] (top concentration 10000 nM), the “selective drug sensitivity score” value was found to be 1.3.

In the case of `Nc1nc(Nc2ccc3c(c2)CC[C@@H](N2CCCC2)CC3)nn1-c1cc2c(nn1)-c1ccccc1CCC2` [BGB324] (top concentration 10000 nM), the “selective drug sensitivity score” value stood at 0.02.

With `CC1(C)C(C(=O)Nc2ccc(S(=O)(=O)c3ccc(NC(=O)C4C(C)(C)C4(C)C)cc3)cc2)C1(C)C` [BRD7116] (top concentration 10000 nM), the “selective drug sensitivity score” value is -0.24.

As for `CCS(=O)(=O)N1CC(CC#N)(n2cc(-c3ncnc4[nH]ccc34)cn2)C1` [Baricitinib] (top concentration 2500 nM), the “selective drug sensitivity score” value is -1.94.

A further assay relates to MHH-CALL-4. The assay is described as above. Conditions: 72 h.
On to `CNC(=O)c1ccc(C)c(-n2c(C)cc(OCc3ccc(F)cc3F)c(Br)c2=O)c1` (top concentration 1000 nM), for which the “selective drug sensitivity score” value was found to be 5.

Take `CONC(=O)c1ccccc1Nc1cc(Nc2cc(C)nn2C(C)C)ncc1Cl` (top concentration 1000 nM): the “selective drug sensitivity score” value is -0.94.

Consider `CCOc1ccn(-c2ccc(F)cc2)c(=O)c1C(=O)Nc1ccc(Oc2ccnc(N)c2Cl)c(F)c1` (top concentration 2500 nM), for which the “selective drug sensitivity score” value was found to be 0.

As to `CC[C@@H]1[C@H](F)C(=O)N[C@@H]1COc1nccc2cc(C(N)=O)c(OC)cc12` (top concentration 10000 nM), the “selective drug sensitivity score” value is -0.92.

Consider `C[C@H]1C[C@@H](n2c(Nc3ccc(OC(F)(F)F)cc3)nc3cc(CCC(=O)O)ccc32)CC(C)(C)C1` (top concentration 10000 nM), for which the “selective drug sensitivity score” value was -0.14.

In the case of `O=C(NCc1ccncc1)C12CC3CC(C1)CC(c1ccc(Cl)cc1)(C3)C2` (top concentration 50000 nM), the “selective drug sensitivity score” value came out at 2.78.

For the compound `O=C(O)c1ccc(CN2CCC(CN[C@@H]3C[C@H]3c3ccccc3)CC2)cc1` (top concentration 100000 nM), the “selective drug sensitivity score” value was 0.58.

For `COc1cc(N2CCN(C)CC2)ccc1Nc1nccc(-c2cn(C)c3cnccc23)n1` [AZ191] (top concentration 10000 nM), the “selective drug sensitivity score” value worked out at 1.98.

With `Cc1cc(Nc2nc(N[C@@H](C)c3ncc(F)cn3)ncc2Cl)[nH]n1` [AZD1480] (top concentration 1000 nM), the “selective drug sensitivity score” value is -0.78.
